Values quoted from earlier work in patent publication US20240269079A1, “MELATONIN FORMULATION IN SOLID DOSAGE FORM” (AGB-Pharma AB, priority 2021, published 2024).

Key:
[1] = after administration

Time for blood levels to return to normal daytime levels [1]: 6 to 8 h
Solubility in aqueous solutions: low solubility
Structure (SMILES): COc1ccc2[nH]cc(CCNC(C)=O)c2c1 [melatonin, N-acetyl-5-methoxytryptamine]
